Test [1] deals with T1, Hhat (Homo sapiens, UniProt Q5VTY9).
T1 construct: expressed in transfected cells; host or cells: 293FT cells (P100 membrane fraction)
Nature of the test: Hhat activity assay (SPA, P100 membranes from HA-Hhat transfected 293FT cells). Format: biochemical. The following applies: 12.5 μM compound, 125I-iodo-palmitoylCoA, Shh biotinylated peptide. The protocol: Hhat activity assay: Five μl of 10 mM MES, pH 6.5 buffer was dispensed within each well of a 384-well white/clear-bottom plate (Greiner Bio-One, Kremsmuenster, Austria) using a Thermo Multi-Drop Combi dispenser. […] Percent inhibition for each experimental point was determined by the formula: [(high control−compound)/(high control−low control)]*100.

Test [2] concerns the target T1, Hhat. Description: In vitro Hhat activity assay with purified enzyme and ShhN recombinant protein (IC50). The class given is biochemical. The following applies: saturating substrate; purified enzyme, 0.7 μM ShhN recombinant protein, 18 μM 125I-iodo-palmitoylCoA. The procedure: Expression and purification of recombinant Shh were carried out as described in Buglino, J. A. and Resh, M. D. “Hhat is a palmitoylacyl transferase with specificity for N-palmitoylation of sonic hedgehog”. J. Biol. Chem. 283, 22076-22088 (2008) and Buglino, J. A. and Resh, M. D. “Identification of conserved regions and residues within Hedgehog acyltransferase critical for palmitoylation of Sonic Hedgehog”. PLoS One 5, e11195 (2010). N-terminally 6×His tagged human Shh 24-197 with an enterokinase cleavage site immediately upstream of residue 24 was amplified using full length Shh as a template. The purified PCR product was ligated in NcoI and BamHI cut PET19b (Novagen). C24S and C24A constructs were generated by site directed mutagenesis using the Quick Change mutagenesis kit. All mutations were confirmed by sequencing. […] Protein concentration was measured using the DC protein assay (BioRad). […]
HhatHAFlagHis was purified as follows. […] Protein concentrations were determined using the DC Protein Assay. The concentration of the final Flag eluate was determined from the absorbance at 280 nm using an extinction coefficient of 193045 cm^−1M^−1. […]

Test [3] relates to AsPC1 (human pancreatic adenocarcinoma) cells. Description: Human pancreatic adenocarcinoma cell assay. Format: cell-based. Conditions: day six, FIG. 3. The procedure:
Human pancreatic adenocarcinoma cell assay: 5000 AsPC1 (human pancreatic adenocarcinoma) cells were plated in each well of a 384-well black/clear-bottom tissue culture plate (Greiner Bio-One, Kremsmuenster, Austria), using Thermo Multi-Drop Combi dispenser. The plates were incubated at 37° C. for 24 h before compounds were dispensed using a Janus “Varispan” automated syringe pipette at 50 μM final concentration. High control (DMSO only) and low control (cell media only) rows were included in each plate. After 48 h incubation, Alamar Blue (Invitrogen) was added to each well in 1:100 ratio. 4 h later, cell viability was assessed by measuring fluorescence on a Perkin-Elmer EnVision plate reader.
Compound 13 was tested in the human pancreatic adenocarcinoma cell assay. The results are shown graphically in FIG. 3. At 10 μM it reduced the proliferation of human pancreatic cancer cells 50% at day six. At 20 μM it reduced the proliferation of human pancreatic cancer cells by 70% at day six.

Each structure is given as a SMILES string.

T1 sequence (Q5VTY9 whole entry): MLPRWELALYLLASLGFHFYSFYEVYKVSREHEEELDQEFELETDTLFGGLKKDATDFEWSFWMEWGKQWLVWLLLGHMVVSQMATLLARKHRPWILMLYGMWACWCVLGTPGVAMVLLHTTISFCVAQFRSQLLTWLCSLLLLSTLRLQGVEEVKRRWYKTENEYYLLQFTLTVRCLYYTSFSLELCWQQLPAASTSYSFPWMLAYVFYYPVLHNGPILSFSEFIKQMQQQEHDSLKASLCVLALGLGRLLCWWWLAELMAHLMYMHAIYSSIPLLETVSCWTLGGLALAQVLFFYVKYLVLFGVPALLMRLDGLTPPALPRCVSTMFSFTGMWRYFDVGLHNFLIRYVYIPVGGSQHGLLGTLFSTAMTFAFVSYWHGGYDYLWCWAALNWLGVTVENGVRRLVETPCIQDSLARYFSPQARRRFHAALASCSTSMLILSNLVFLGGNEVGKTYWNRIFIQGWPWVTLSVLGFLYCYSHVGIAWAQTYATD

Consider `C=CCNCC(=O)N1CCc2sccc2C1c1ccccc1` (centres unmarked) [Example 5], for which, at Hhat [1], 12.5 µM produced 95.6% inhibition.
In the case of `CCC(C)CNCC(=O)N1CCc2sccc2C1c1cccc(C)c1` (centres unmarked) [Example 13], the IC50 on Hhat [2] is 2050 nM. Also, the entries for the “reduction of proliferation of human pancreatic cancer cells” value in test [3] (10 μM) and in test [3] (20 μM) were 50% and 70%, respectively.
On to `CCC(C)CNCC(=O)N1CCc2sccc2C1c1cccc(C)n1` (centres unmarked) [Example 14], for which, at Hhat [2], the 50% inhibitory concentration (IC50) is 680 nM.

The values are drawn from patent US9943507B2, “Treatment of pancreatic and related cancers with 5-acyl-6,7-dihydrothieno[3,2-c]pyridines” (Memorial Sloan-Kettering Cancer Center, priority 2012, dated 2018).
